Assays:
human Gal-3 (hGal-3) = human Gal-3 (hGal-3) (Homo sapiens (Human), UniProt P17931); experiment: Competitive binding assay: binding of biotinylated hGal-3 to microplate-adsorbed asialofetuin (ASF); settings: Activity on hGal-3; mean values of several measurements
Experimental: (§1) Evaluation of Compound Inhibitory Activity (IC50)
(§2) The inhibitory activity of compounds is determined in competitive binding assays. This spectrophotometric assay measures the binding of biotinylated human Gal-3 (hGal-3) or human Gal-1 (hGal-1), respectively, to a microplate-adsorbed glycoprotein, asialofetuin (ASF) (Proc Natl Acad Sci USA. 2013 Mar. 26; 110(13):5052-7.). Alternatively, and preferably, a human Gal-1 version in which all six cysteines are substituted by serines may be used.
(§3) Briefly, compounds are serially diluted in DMSO (working dilutions). ASF-coated 384 well plates are supplemented with 22.8 μL/well of biotinylated hGal-3 or hGal-1 in assay buffer (i.e. 300-1000 ng/mL biotinylated hGal-3 or hGal-1) to which 1.2 μL of compound working dilutions are added and mixed.
(§4) Plates are incubated for 3 hours at 4° C., then washed with cold assay buffer (3×50 uL), incubated for 1 hour with 25 μL/well of a streptavidin-peroxidase solution (diluted in assay buffer to 80 ng/mL) at 4° C., followed by further washing steps with assay buffer (3×50 uL). Finally, 25 μL/well of ABTS substrate is added.
(§5) The calculated IC50 values may fluctuate depending on the daily assay performance. Fluctuations of this kind are known to those skilled in the art. IC50 values from several measurements are given as mean values.

human Gal-1 (hGal-1) = experiment: Competitive binding assay: binding of biotinylated hGal-1 to microplate-adsorbed asialofetuin (ASF); settings: Activities on hGal-1; mean values of several measurements
human Gal-1 (hGal-1), sequence (P09382 2-135 limits assumed): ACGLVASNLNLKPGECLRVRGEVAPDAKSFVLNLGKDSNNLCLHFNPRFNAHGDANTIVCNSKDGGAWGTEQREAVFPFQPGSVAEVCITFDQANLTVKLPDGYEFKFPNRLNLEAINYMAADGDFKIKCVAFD
Experimental: as §1, §2, §3, §4, §5

human Gal-3 (hGal-3), sequence (P17931 whole entry): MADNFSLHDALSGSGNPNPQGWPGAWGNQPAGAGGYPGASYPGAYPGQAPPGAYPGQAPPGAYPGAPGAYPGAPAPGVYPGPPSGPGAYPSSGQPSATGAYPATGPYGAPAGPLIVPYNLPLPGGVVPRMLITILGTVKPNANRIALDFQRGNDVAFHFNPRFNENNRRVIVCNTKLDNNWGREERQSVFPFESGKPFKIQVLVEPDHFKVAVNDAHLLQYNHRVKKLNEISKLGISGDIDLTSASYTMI

Compound	IC50 (human Gal-3 (hGal-3)) [nM]	IC50 (human Gal-1 (hGal-1)) [nM]
CC(=O)O[C@@H]1[C@@H](n2cc(-c3cc(F)c(F)c(F)c3)nn2)[C@@H](O)[C@@H](CO)O[C@@H]1CC1=NOC(C2CCN(C(C)=O)CC2)C1 (mixture of isomers) [Example 3.23, (2R,3R,4S,5R,6R)-2-(((RS)-5-(1-acetylpiperidin-4-yl)-4,5-dihydroisoxazol-3-yl)methyl)-5-hydroxy-6-(hydroxymethyl)-4-(4-(3,4,5-trifluorophenyl)-1H-1,2,3-triazol-1-yl)tetrahydro-2H-pyran-3-yl acetate]	230	3990
CO[C@@H]1[C@@H](n2cc(-c3cc(F)c(F)c(F)c3)nn2)[C@@H](O)[C@@H](CO)O[C@@H]1CC1=NOC(C2CCNCC2)C1 (mixture of isomers) [Example 3.36, (2R,3R,4S,5R,6R)-2-(hydroxymethyl)-5-methoxy-6-(((RS)-5-(piperidin-4-yl)-4,5-dihydroisoxazol-3-yl)methyl)-4-(4-(3,4,5-trifluorophenyl)-1H-1,2,3-triazol-1-yl)tetrahydro-2H-pyran-3-ol]	1160	8140
CO[C@@H]1[C@@H](n2cc(-c3cc(F)c(F)c(F)c3)nn2)[C@@H](O)[C@@H](CO)O[C@@H]1CC1=NOC(C2CCN(C(C)=O)CC2)C1 (mixture of isomers) [Example 3.40, 1-(4-((RS)-3-(((2R,3R,4S,5R,6R)-5-hydroxy-6-(hydroxymethyl)-3-methoxy-4-(4-(3,4,5-trifluorophenyl)-1H-1,2,3-triazol-1-yl)tetrahydro-2H-pyran-2-yl)methyl)-4,5-dihydroisoxazol-5-yl)piperidin-1-yl)ethan-1-one]	310	1210
CCC(C)C(=O)N1CCC(c2cc(C[C@H]3O[C@H](CO)[C@H](O)[C@H](n4cc(-c5cc(F)c(F)c(F)c5)nn4)[C@H]3OC)no2)CC1 (mixture of isomers) [Example 3.53, (RS)-1-(4-(3-(((2R,3R,4S,5R,6R)-5-hydroxy-6-(hydroxymethyl)-3-methoxy-4-(4-(3,4,5-trifluorophenyl)-1H-1,2,3-triazol-1-yl)tetrahydro-2H-pyran-2-yl)methyl)isoxazol-5-yl)piperidin-1-yl)-2-methylbutan-1-one]	190	2510
CO[C@@H]1[C@@H](n2cc(-c3cc(F)c(F)c(F)c3)nn2)[C@@H](O)[C@@H](CO)O[C@@H]1Cc1cc(C2CCN([S+]([O-])C(C)(C)C)CC2)on1 (mixture of isomers) [Example 3.55, (2R,3R,4S,5R,6R)-6-((5-(1-((RS)-tert-butylsulfinyl)piperidin-4-yl)isoxazol-3-yl)methyl)-2-(hydroxymethyl)-5-methoxy-4-(4-(3,4,5-trifluorophenyl)-1H-1,2,3-triazol-1-yl)tetrahydro-2H-pyran-3-ol]	90	2990
CO[C@@H]1[C@@H](n2cc(-c3cc(F)c(F)c(F)c3)nn2)[C@@H](O)[C@@H](CO)O[C@@H]1Cc1cc(C2CCN(S(=N)(=O)C(C)(C)C)CC2)on1 (mixture of isomers) [Example 3.56, (RS)-(2R,3R,4S,5R,6R)-2-(hydroxymethyl)-5-methoxy-6-((5-(1-(2-methylpropan-2-ylsulfonimidoyl)piperidin-4-yl)isoxazol-3-yl)methyl)-4-(4-(3,4,5-trifluorophenyl)-1H-1,2,3-triazol-1-yl)tetrahydro-2H-pyran-3-ol]	20	610
CN=S(=O)(C(C)C)N1CCC(c2cc(C[C@H]3O[C@H](CO)[C@H](O)[C@H](n4cc(-c5cc(F)c(F)c(F)c5)nn4)[C@H]3OC)no2)CC1 (mixture of isomers) [Example 3.57, (RS)-(2R,3R,4S,5R,6R)-2-(hydroxymethyl)-5-methoxy-6-((5-(1-(N-methylpropan-2-ylsulfonimidoyl)piperidin-4-yl)isoxazol-3-yl)methyl)-4-(4-(3,4,5-trifluorophenyl)-1H-1,2,3-triazol-1-yl)tetrahydro-2H-pyran-3-ol]	97	1400

Reference: US12319672B2, “Alpha-D-galactopyranoside derivatives” (Idorsia Pharmaceuticals Ltd, priority 2019, dated 2025)
